Experimental data reported in the NIST ThermoML archive (doi:10.1016/j.jct.2006.01.008).
Numbers after ± are expanded uncertainties.

Assay: mn = molality of the nth substance listed, in mol/kg
Conditions: Liquid

O=[N+]([O-])[O-].[Li+] [lithium nitrate] + CO
Conditions	mass density [kg/m3]
373.27 K, 30013 kPa, m1 = 1.803	827.46 ± 0.61
373.27 K, 34987 kPa, m1 = 3.614	895.79 ± 0.44
373.27 K, 35004 kPa, m1 = 1.803	831.77 ± 0.66
373.27 K, 39994 kPa, m1 = 3.614	899.5 ± 0.46
373.27 K, 39997 kPa, m1 = 1.803	835.89 ± 0.71
373.28 K, 542 kPa, m1 = 0.5393	739.72 ± 0.29
373.28 K, 4986 kPa, m1 = 0.5393	746.09 ± 0.37
373.28 K, 9996 kPa, m1 = 0.5393	752.7 ± 0.45
373.28 K, 14984 kPa, m1 = 0.5393	758.8 ± 0.54
373.28 K, 20003 kPa, m1 = 0.5393	764.52 ± 0.62
373.28 K, 24985 kPa, m1 = 0.5393	769.85 ± 0.69
373.28 K, 29993 kPa, m1 = 0.5393	774.9 ± 0.77
373.28 K, 35001 kPa, m1 = 0.5393	779.7 ± 0.84
373.28 K, 39997 kPa, m1 = 0.5393	784.24 ± 0.91
398.15 K, 1035 kPa, m1 = 0.2943	699.13 ± 0.34
398.15 K, 1138 kPa, m1 = 0.8904	730.97 ± 0.31
398.15 K, 1432 kPa, m1 = 0.1551	691.82 ± 0.35
398.15 K, 5023 kPa, m1 = 0.8904	736.91 ± 0.38
398.15 K, 5126 kPa, m1 = 0.1551	698.39 ± 0.43
398.15 K, 5236 kPa, m1 = 0.2943	706.42 ± 0.42
398.15 K, 10058 kPa, m1 = 0.8904	744.23 ± 0.47
398.15 K, 10628 kPa, m1 = 0.1551	707.59 ± 0.54
398.15 K, 10698 kPa, m1 = 0.2943	715.31 ± 0.53
398.15 K, 15234 kPa, m1 = 0.1551	714.77 ± 0.63
398.15 K, 15573 kPa, m1 = 0.8904	751.75 ± 0.56
398.15 K, 15874 kPa, m1 = 0.2943	723.14 ± 0.63
398.15 K, 20035 kPa, m1 = 0.8904	757.46 ± 0.64
398.15 K, 20452 kPa, m1 = 0.2943	729.57 ± 0.71
398.15 K, 21035 kPa, m1 = 0.1551	723.12 ± 0.74
398.15 K, 25069 kPa, m1 = 0.8904	763.49 ± 0.72
398.15 K, 25235 kPa, m1 = 0.2943	735.81 ± 0.79
398.15 K, 26078 kPa, m1 = 0.1551	729.75 ± 0.83
398.15 K, 30027 kPa, m1 = 0.1551	734.55 ± 0.9
398.15 K, 30047 kPa, m1 = 0.8904	769.04 ± 0.79
398.15 K, 30385 kPa, m1 = 0.2943	741.96 ± 0.88
398.15 K, 35256 kPa, m1 = 0.2943	747.26 ± 0.96
398.15 K, 35845 kPa, m1 = 0.8904	774.96 ± 0.87
398.15 K, 35941 kPa, m1 = 0.1551	741.06 ± 1
398.15 K, 39127 kPa, m1 = 0.2943	751.09 ± 1
398.15 K, 39254 kPa, m1 = 0.8904	778.18 ± 0.92
398.15 K, 39789 kPa, m1 = 0.1551	744.86 ± 1.1
398.28 K, 900 kPa, m1 = 3.614	842.05 ± 0.21
398.28 K, 4994 kPa, m1 = 3.614	846.92 ± 0.25
398.28 K, 10001 kPa, m1 = 3.614	852.52 ± 0.3
398.28 K, 14988 kPa, m1 = 3.614	857.76 ± 0.35
398.28 K, 19997 kPa, m1 = 3.614	862.72 ± 0.39
398.28 K, 24994 kPa, m1 = 3.614	867.42 ± 0.43
398.28 K, 29993 kPa, m1 = 3.614	871.89 ± 0.47
398.28 K, 34991 kPa, m1 = 3.614	876.17 ± 0.51
398.28 K, 39987 kPa, m1 = 3.614	880.27 ± 0.54
398.29 K, 904 kPa, m1 = 0.5393	712.1 ± 0.32
398.29 K, 906 kPa, m1 = 1.803	771.63 ± 0.27
398.29 K, 4994 kPa, m1 = 1.803	777.53 ± 0.33
398.29 K, 4996 kPa, m1 = 0.5393	719.24 ± 0.4
398.29 K, 9985 kPa, m1 = 0.5393	727.14 ± 0.5
398.29 K, 9986 kPa, m1 = 1.803	784.19 ± 0.41
398.29 K, 14989 kPa, m1 = 1.803	790.36 ± 0.48
398.29 K, 15010 kPa, m1 = 0.5393	734.37 ± 0.59
398.29 K, 19986 kPa, m1 = 1.803	796.11 ± 0.55
398.29 K, 20018 kPa, m1 = 0.5393	740.98 ± 0.67
398.29 K, 24995 kPa, m1 = 1.803	801.52 ± 0.61
398.29 K, 25002 kPa, m1 = 0.5393	747.09 ± 0.76
398.29 K, 29986 kPa, m1 = 1.803	806.59 ± 0.67
398.29 K, 30001 kPa, m1 = 0.5393	752.82 ± 0.84
398.29 K, 34984 kPa, m1 = 0.5393	758.22 ± 0.92
398.29 K, 34988 kPa, m1 = 1.803	811.42 ± 0.73
398.29 K, 39996 kPa, m1 = 0.5393	763.34 ± 0.99
398.29 K, 40001 kPa, m1 = 1.803	816.03 ± 0.79
